Measured values: patent publication US9962369B2, “Methods and compositions for transdermal delivery” (SPRAYABLE HOLDINGS, INC., priority 2014, dated 2018)

Assay: Transdermal delivery of melatonin: plasma level of melatonin after applying composition to skin of a subject
Details: human, plasma, topical, 3 mg, Plasma level of melatonin; for concentration at 4 h / concentration at 4 hr: 4 hr after transdermal administration; for concentration at 8 h / concentration at 8 hr: 8 hr after transdermal administration; for concentration at 0 h / concentration at 0 hr: 0 hr after transdermal administration; for concentration at 1 h / concentration at 1 hr: 1 hr after transdermal administration; for concentration at 2 h / concentration at 2 hr: 2 hr after transdermal administration; for concentration at 0 hr / concentration at 1 hr / concentration at 2 hr / concentration at 4 hr / concentration at 8 hr: 0.30 mL applied to skin
[1] = Table 20 control, A− N/A, helper esters 0 mM, 2.0 mL applied
[2] = Tryptophan butyl ester hydrochloride 235.90 mM, 0.3 mL applied to skin
[3] = Tryptophan ethyl ester hydrochloride 260.47 mM, 0.3 mL applied to skin
[4] = Tryptophan isopropyl ester hydrochloride 247.52 mM, 0.3 mL applied to skin
[5] = Tyrosine isopropyl ester 269.50 mM
[6] = Tyrosine pentyl ester 243.25 mM
[7] = salt of tryptophan isopropyl ester, A− = AcO^−, 228.48 mM, 0.30 mL applied
[8] = salt of tryptophan isopropyl ester, A− = Benzoate ion, 189.98 mM, 0.30 mL applied
[9] = salt of tryptophan isopropyl ester, A− = Br^−, 220.92 mM, 0.30 mL applied
[10] = salt of tryptophan isopropyl ester, A− = Citrate ion, 159.67 mM, 0.30 mL applied

In the case of `COc1ccc2[nH]cc(CCNC(C)=O)c2c1` [Melatonin], the concentration at 4 h [1] is reported as 0.1 ng/mL, the concentration at 8 h [1] is reported as 0.1 ng/mL and the concentration at 0 h [2] is reported as 0 ng/mL. It also gave a concentration at 1 h [2] of 1.8 ng/mL, a concentration at 2 h [2] of 1.9 ng/mL and a concentration at 4 h [2] of 1.7 ng/mL. For the same molecule, the concentration at 8 h [2] was 1.7 ng/mL, the concentration at 0 h [3] was 0 ng/mL and the concentration at 1 h [3] was 2 ng/mL. For the same molecule, the concentration at 2 h [3] was 2.2 ng/mL, the concentration at 4 h [3] was 1.9 ng/mL and the concentration at 8 h [3] was 1.8 ng/mL. The concentration at 2 h [4] was 2.8 ng/mL, the concentration at 4 h [4] was 2.7 ng/mL and the concentration at 8 h [4] was 2.5 ng/mL. The concentration at 0 hr [5] was 0 ng/mL, the concentration at 1 hr [5] was 2.1 ng/mL and the concentration at 2 hr [5] was 2.9 ng/mL. The concentration at 4 hr [5] was 2.7 ng/mL, the concentration at 8 hr [5] was 2.8 ng/mL and the concentration at 0 hr [6] was 0 ng/mL. It also gave a concentration at 1 hr [6] of 1.8 ng/mL, a concentration at 2 hr [6] of 2.1 ng/mL and a concentration at 4 hr [6] of 2.2 ng/mL. For the same molecule, the concentration at 8 hr [6] was 2.1 ng/mL, the concentration at 0 hr (Tyrosine propyl ester 269.5 mM) was 0 ng/mL and the concentration at 1 hr (Tyrosine propyl ester 269.5 mM) was 2 ng/mL. The concentration at 2 hr (Tyrosine propyl ester 269.5 mM) was 2.5 ng/mL, the concentration at 4 hr (Tyrosine propyl ester 269.5 mM) was 2.6 ng/mL and the concentration at 8 hr (Tyrosine propyl ester 269.5 mM) was 2.6 ng/mL. The concentration at 0 h [7] was 0 ng/mL, the concentration at 1 h [7] was 1.9 ng/mL and the concentration at 2 h [7] was 2.2 ng/mL. For the same molecule, the concentration at 4 h [7] was 2.1 ng/mL, the concentration at 8 h [7] was 2 ng/mL and the concentration at 0 h [8] was 0 ng/mL. It also gave a concentration at 1 h [8] of 1.8 ng/mL, a concentration at 2 h [8] of 1.8 ng/mL and a concentration at 4 h [8] of 2 ng/mL. It also gave a concentration at 8 h [8] of 1.7 ng/mL, a concentration at 0 h [9] of 0 ng/mL and a concentration at 1 h [9] of 2.4 ng/mL. For the same molecule, the concentration at 2 h [9] was 2.9 ng/mL, the concentration at 4 h [9] was 2.6 ng/mL and the concentration at 8 h [9] was 2.6 ng/mL. It also gave a concentration at 0 h [10] of 0 ng/mL, a concentration at 1 h [10] of 2.1 ng/mL and a concentration at 2 h [10] of 2.3 ng/mL. It also gave a concentration at 4 h [10] of 2.4 ng/mL, a concentration at 8 h [10] of 2.1 ng/mL and a concentration at 0 h (salt of tryptophan isopropyl ester, A− = Cl^−, 247.52 mM, 0.30 mL applied) of 0 ng/mL.
